Test results reported in patent US9555039B2, “Piperidine derivatives and compositions for the inhibition of nicotinamide phosphoribosyltransferase (NAMPT)” (Forma TM, LLC., priority 2011, dated 2017).
Where two headings read alike, the source gives them in different places.

Key:
[1] = biological target: T1, Recombinant His-tagged NAMPT (Homo sapiens, UniProt P43490); assay: Biochemical inhibition assay: NAMPT enzymatic reaction, NMN quantified by mass spectrometry; details: 33 nM NAMPT, 1 μM NAM, 100 μM PRPP, 30 minutes at room temperature, read-out: Biochem IC50
T1 construct: His; host or cells: E. coli
T1 sequence (P43490 whole entry): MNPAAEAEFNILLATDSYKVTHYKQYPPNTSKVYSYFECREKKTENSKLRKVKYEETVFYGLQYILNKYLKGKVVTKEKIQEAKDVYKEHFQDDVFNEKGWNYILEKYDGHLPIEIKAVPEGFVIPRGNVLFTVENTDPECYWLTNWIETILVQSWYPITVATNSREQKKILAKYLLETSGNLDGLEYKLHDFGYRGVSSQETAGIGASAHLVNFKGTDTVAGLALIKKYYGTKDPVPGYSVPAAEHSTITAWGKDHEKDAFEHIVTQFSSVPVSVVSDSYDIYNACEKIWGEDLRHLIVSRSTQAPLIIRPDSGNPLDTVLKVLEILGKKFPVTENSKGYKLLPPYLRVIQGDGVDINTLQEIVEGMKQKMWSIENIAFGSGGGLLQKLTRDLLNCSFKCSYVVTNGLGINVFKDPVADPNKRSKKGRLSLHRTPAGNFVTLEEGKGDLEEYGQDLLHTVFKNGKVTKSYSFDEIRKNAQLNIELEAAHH
In short: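 Reaction 30 min at room temperature with 1 μM NAM, 100 μM PRPP, 2.5 mM ATP (final), quenched with formic acid. NMN quantified by RapidFire electrospray MS, normalized to L-cystathionine; IC50 from percent inhibition versus DMSO.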

A2780 cells = assay: In-vitro cell proliferation assay (SRB, 72 hours); assay type: cell-based; details: sulforhodamine B (SRB) assay
In short: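 Background from media-only plate subtracted; inhibition relative to DMSO-treated cells, value derived by interpolation between two concentrations.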

Structure (SMILES) | IC50 ([1]; 2.5 mM ATP) | IC50 (A2780 cells; Homo sapiens) | IC50 ([1]; […] ATP) | IC50 (A2780 cells)
CC(C)Oc1ccc(C(=O)N2CCC(CCCCNC(=O)c3cc4ccncc4s3)CC2)cc1 [N-[4-(1-{[4-(propan-2-yloxy)phenyl]carbonyl}piperidin-4-yl)butyl]thieno[2,3-c]pyridine-2-carboxamide] | 40 nM | 100 to 1000 nM | – | –
O=C(NCCCCC1CCN(C(=O)c2ccccn2)CC1)c1cc2cnccc2[nH]1 [N-(4-{1-[(pyridin-2-yl)carbonyl]piperidin-4-yl}butyl)-1H-pyrrolo[3,2-c]pyridine-2-carboxamide] | 30.6 nM | 6.3 nM | – | –
Cc1ccc(C(=O)N2CCC(CCCCNC(=O)c3cc4cnccc4[nH]3)CC2)cc1F [N-(4-{1-[(3-fluoro-4-methylphenyl)carbonyl]piperidin-4-yl}butyl)-1H-pyrrolo[3,2-c]pyridine-2-carboxamide] | 77.1 nM | 22.4 nM | – | –
Cc1nc(CC(=O)N2CCC(CCCCNC(=O)c3cc4ccncc4s3)CC2)cs1 [N-(4-{1-[2-(2-methyl-1,3-thiazol-4-yl)acetyl]piperidin-4-yl}butyl)thieno[2,3-c]pyridine-2-carboxamide] | 13.5 nM | 28.2 nM | – | –
O=C(NCCCCC1CCN(C(=O)c2ccncc2)CC1)c1cc2cnccc2[nH]1 [N-(4-{1-[(pyridin-4-yl)carbonyl]piperidin-4-yl}butyl)-1H-pyrrolo[3,2-c]pyridine-2-carboxamide] | 9.7 nM | 4.4 nM | – | –
O=C(NCCCCC1CCN(C(=O)c2ccc(Cl)c(Cl)c2)CC1)c1ccc2nccn2c1 [N-(4-{1-[(3,4-dichlorophenyl)carbonyl]piperidin-4-yl}butyl)imidazo[1,2-a]pyridine-6-carboxamide] | 49 nM | 100 to 1000 nM | – | –
O=C(NCCCCC1CCN(S(=O)(=O)c2cccc(OC(F)(F)F)c2)CC1)c1cc2cnccc2[nH]1 [N-[4-(1-{[3-(trifluoromethoxy)benzene]sulfonyl}piperidin-4-yl)butyl]-1H-pyrrolo[3,2-c]pyridine-2-carboxamide] | – | – | 77.8 nM | 18.7 nM
Cc1cccc(C(=O)N2CCC(CCCCNC(=O)c3cc4cnccc4[nH]3)CC2)c1F [N-(4-{1-[(2-fluoro-3-methylphenyl)carbonyl]piperidin-4-yl}butyl)-1H-pyrrolo[3,2-c]pyridine-2-carboxamide] | 47.5 nM | 6.9 nM | – | –
COc1ccc(C(=O)N2CCC(CCCCNC(=O)c3ccc4nccn4c3)CC2)c(OC)c1 [N-(4-{1-[(2,4-dimethoxyphenyl)carbonyl]piperidin-4-yl}butyl)imidazo[1,2-a]pyridine-6-carboxamide] | 22.2 nM | 3.3 nM | – | –
O=C(NCCCCC1CCN(C(=O)c2ccc(Cl)cc2Cl)CC1)c1ccc2nccn2c1 [N-(4-{1-[(2,4-dichlorophenyl)carbonyl]piperidin-4-yl}butyl)imidazo[1,2-a]pyridine-6-carboxamide] | 35.7 nM | 14.4 nM | – | –
O=C(NCCCCC1CCN(C(=O)c2cc3cnccc3[nH]2)CC1)c1cc2ccncc2s1 [N-{4-[1-({1H-pyrrolo[3,2-c]pyridin-2-yl}carbonyl)piperidin-4-yl]butyl}thieno[2,3-c]pyridine-2-carboxamide] | 6.9 nM | 13.7 nM | – | –
O=C(NCCCCC1CCN(C(=O)c2cc3ccccc3[nH]2)CC1)c1ccc2nccn2c1 [N-(4-{1-[(1H-indol-2-yl)carbonyl]piperidin-4-yl}butyl)imidazo[1,2-a]pyridine-6-carboxamide] | 61.6 nM | 100 to 1000 nM | – | –
O=C(NCCCCC1CCN(C(=O)c2ccc(N3CCOCC3)nc2)CC1)c1ccc2nccn2c1 [N-[4-(1-{[6-(morpholin-4-yl)pyridin-3-yl]carbonyl}piperidin-4-yl)butyl]imidazo[1,2-a]pyridine-6-carboxamide] | 12.9 nM | 5.9 nM | – | –
O=C(NCCCCC1CCN(C(=O)c2ccc(F)cc2F)CC1)c1cc2cnccc2[nH]1 [N-(4-{1-[(2,4-difluorophenyl)carbonyl]piperidin-4-yl}butyl)-1H-pyrrolo[3,2-c]pyridine-2-carboxamide] | 39.3 nM | 8.1 nM | – | –
Cc1ccc(C(=O)N2CCC(CCCCNC(=O)c3ccc4nccn4c3)CC2)cn1 [N-(4-{1-[(6-methylpyridin-3-yl)carbonyl]piperidin-4-yl}butyl)imidazo[1,2-a]pyridine-6-carboxamide] | 23.8 nM | 73.6 nM | – | –
Cc1nc(CC(=O)N2CCC(CCCCNC(=O)c3ccc4nccn4c3)CC2)cs1 [N-(4-{1-[2-(2-methyl-1,3-thiazol-4-yl)acetyl]piperidin-4-yl}butyl)imidazo[1,2-a]pyridine-6-carboxamide] | 18.9 nM | 28 nM | – | –
Cc1nc(C(=O)N2CCC(CCCCNC(=O)c3cc4ccncc4s3)CC2)cs1 [N-(4-{1-[(2-methyl-1,3-thiazol-4-yl)carbonyl]piperidin-4-yl}butyl)thieno[2,3-c]pyridine-2-carboxamide] | 22.4 nM | 100 to 1000 nM | – | –
CCOc1cccc(C(=O)N2CCC(CCCCNC(=O)c3cc4ccncc4s3)CC2)c1 [N-(4-{1-[(3-ethoxyphenyl)carbonyl]piperidin-4-yl}butyl)thieno[2,3-c]pyridine-2-carboxamide] | 39.1 nM | 76.5 nM | – | –
O=C(NCCCCC1CCN(C(=O)c2cccnc2)CC1)c1ccc2nccn2c1 [N-(4-{1-[(pyridin-3-yl)carbonyl]piperidin-4-yl}butyl)imidazo[1,2-a]pyridine-6-carboxamide] | 12.7 nM | 27.4 nM | – | –
COc1ccc(S(=O)(=O)N2CCC(CCCCNC(=O)c3cc4cnccc4[nH]3)CC2)c(OC)c1 [N-(4-{1-[(2,4-dimethoxybenzene)sulfonyl]piperidin-4-yl}butyl)-1H-pyrrolo[3,2-c]pyridine-2-carboxamide] | 19.1 nM | 1.7 nM | – | –
O=C(NCCCCC1CCN(C(=O)c2ccc3cc[nH]c3c2)CC1)c1cc2cnccc2[nH]1 [N-(4-{1-[(1H-indol-6-yl)carbonyl]piperidin-4-yl}butyl)-1H-pyrrolo[3,2-c]pyridine-2-carboxamide] | 52.9 nM | 13.4 nM | – | –
CCOc1ncccc1C(=O)N1CCC(CCCCNC(=O)c2ccc3nccn3c2)CC1 [N-(4-{1-[(2-ethoxypyridin-3-yl)carbonyl]piperidin-4-yl}butyl)imidazo[1,2-a]pyridine-6-carboxamide] | 9.2 nM | 0.5 nM | – | –
O=C(NCCCCC1CCN(C(=O)c2cnccc2C(F)(F)F)CC1)c1cc2cnccc2[nH]1 [N-[4-(1-{[4-(trifluoromethyl)pyridin-3-yl]carbonyl}piperidin-4-yl)butyl]-1H-pyrrolo[3,2-c]pyridine-2-carboxamide] | 39.8 nM | 2.9 nM | – | –
O=C(NCCCCC1CCN(C(=O)c2ccc(Cl)cc2Cl)CC1)c1cc2ccncc2s1 [N-(4-{1-[(2,4-dichlorophenyl)carbonyl]piperidin-4-yl}butyl)thieno[2,3-c]pyridine-2-carboxamide] | 41 nM | 86.1 nM | – | –
Cc1cccc(C(=O)N2CCC(CCCCNC(=O)c3ccc4nccn4c3)CC2)c1F [N-(4-{1-[(2-fluoro-3-methylphenyl)carbonyl]piperidin-4-yl}butyl)imidazo[1,2-a]pyridine-6-carboxamide] | 22.6 nM | 12.7 nM | – | –
Cc1ccc(C(=O)N2CCC(CCCCNC(=O)c3cc4ccncc4s3)CC2)cc1F [N-(4-{1-[(3-fluoro-4-methylphenyl)carbonyl]piperidin-4-yl}butyl)thieno[2,3-c]pyridine-2-carboxamide] | 41.7 nM | 100 to 1000 nM | – | –
